Results on one sequence are retold here after PMC12677653, “Inhibition of Tumor Lipogenesis and Growth by Peptide‐Based Targeting of SREBP Activation” (Advanced Science, 2025).

In this experiment the test system is lipid levels, Ki67, Insig1 pS207/Insig2 pS151. The experiment in a line: Oil Red O and IHC of tumors from high-fat diet mice. The following applies: orthotopic Huh7, high-fat diet, IHC; semaglutide 30 nmol/kg ip daily and/or LNP peptide 10 mg/kg iv. In kind it is in vivo, nude mice. The procedure:
Figure 5 The Insig1/2 loop 1 peptide in combination with semaglutide treatment induces an additive tumor inhibitor effect. a–c) Huh7 cells were orthotopically injected into the liver of nude mice (n = 7 per group). Treatment groups received intravenous injections of LNP@Insig1/2 loop 1 peptide (10 mg kg^−1, every other day), and/or intraperitoneal injection of Semaglutide (30 nmol kg^−1, daily). (a) Representative optical images of tumors, (b) tumor weights, data are expressed as mean ± SD, statistical significance was determined by one‐way analysis of variance (ANOVA), and (c) survival analysis was performed using Kaplan‐Meier curves. Statistical significance was determined by Log‐rank (Mantel‐Cox) test. d) Cryosections of mouse tumor tissues were prepared, and lipid accumulation was assessed by Oil Red O staining. […] Quantitative analysis of lipid droplet counts (Oil Red O‐positive particles) was performed. Data are expressed as mean ± SD (n = 3). Statistical significance was determined by one‐way analysis of variance (ANOVA). e) Immunohistochemical (IHC) analysis of mouse tumor specimens was performed using the Ki67 antibody. […] Data are expressed as mean ± SD (n = 3). Statistical significance was determined by one‐way analysis of variance (ANOVA). f) Immunohistochemical (IHC) analysis of mouse tumor specimens was performed using the Insig1 pS207/Insig2 pS151 antibody. […]

“RKKRRQRRRLYPCIDSHLGEPHKFKRE [Insig1/2 loop 1 peptide]”: the “high-fat diet-enhanced Insig1 S207 and Insig2 S151 phosphorylation in tumors” value is reported as “reduced”.
